The values below come from patent US5118669A, “Peptides and intermediates therefor useful as antiallergic agents, vasodilators and immunoregulators” (Hitachi Chemical Co., Ltd., priority 1989, dated 1992).

Experiment [1] has as its system thoracic aorta of male rabbits contracted with potassium chloride. As to the kind of experiment: Vasodilating action on aortic spiral strip contracted with potassium chloride. The following applies: potassium chloride contraction. The arrangement: species or system rabbit. The method, then: (§1) The thoracic aorta of male rabbits weighing 2.5-3 kg was excised and aortic specimens of spiral strip 25-30 mm in length were prepared. […] The specimen was cumulatively administered with H-Asp-Gly-Lys-OH, H Ser-Asp-Gly-Lys-OH, or H-Asp-Ser-Asp-Gly-Lys-OH or H-Ala-Asp-Ser-Asp-Gly-Lys-OH, and relaxation reaction of the blood vessel was observed. As comparative drug were employed nitroprusside (sodium salt) and verapamil.

For experiment [2], the system named is thoracic aorta of male rabbits contracted with norepinephrine. As to the kind of experiment: Vasodilating action on aortic spiral strip contracted with norepinephrine. The arrangement: species or system rabbit. To be noted: norepinephrine contraction. The method, then:
as §1

Experiment [3] has as its system intraperitoneal mast cells of the rats. The experiment is described as follows: Inhibitory activity on histamine release from passively sensitized rat mast cells. In kind it is cell-based. As to the method: Male Wistar rats weighing 300-350 g were passively sensitized, and intraperitoneal mast cells of the rats were employed for the test. Rat antiserum used in the passive sensitization was prepared in accordance with the method of Mota [Immunology, 7, p. 681 (1964)] and the method of Hamaoka [J. Immunology, 113, p. 958 (1974)]. Male Wistar rats (weighing 200-250 g) each were injected ovalbumin (10 mg/kg) in a volume of 5 ml/kg intramuscularly on both thighs and simultaneously 2×10^10 cells of killed Bordetella pertussis were intraperitoneally administered to immunize the animal. Blood was drawn from the animal under ether anesthesia via the abdominal aorta on day 12 of the initial sensitization,from which antiserum was separated. The antiserum was lyophilized and stored at -20° C. Titer of the antiserum was assayed by the 48-hour rat PCA reaction. […] The anti-albumin IgE serum of the rat was two fold diluted, and 1 ml of the diluted serum was intraperitoneally administered to sensitize the animal. The rat was killed by blooding 48 hours after the sensitization, and 15 ml of a phosphate buffered saline (NaCl 8 g, KCl 0.2 g, Na2 HPO4.12H2 O 2.88 g, KH2 PO4 0.2 g, EDTA.2Na 0.2 g and bovine serum albumin 1 g, dissolved in purified water to make 1 liter, pH 7.4 (called PBS(-) hereinbelow) was intraperitoneally injected. The rat was then given light abdominal massage for about 2 min. and subjected to laparotomy to collect cells in the abdominal cavity. The cell suspension was centrifuged (1,000 rpm, 10 min.) and then resuspended in PBS(-). The PBS(-) suspension was overlayered on gum arabic density (specific gravity 1.075) followed by centrifugal separation (2,500 rpm, 10 min.). Deposited cells were washed with PBS(-) and suspended in fresh PBS(+)[a solution in which the EDTA 2Na in PBS(-) is replaced by 0.1 g of CaCl2, called PBS(+)] and adjusted to 1×10^5 cells/ml. The cell suspension was divided into silicone-treated test tubes in a volume of 0.8 ml/tube, which were then preincubated at 37° C. for 10 min. In the cell suspension-containing test tube was placed 0.1 ml of a test solution from various solutions diluted with PBS(+) followed by incubation at 37° C. for 15 min. To the test tube was then added 0.1 ml of a mixed solution of ovalbumin antigen (final concentration 1 mg/ml) and phosphatidyl-L-serine (final concentration 100 μm/ml) followed by incubation for additional 15 min. to release histamine. For cromoglycate, one of the comparative drugs, the drug was added 30 sec. prior to the addition of the antigen, and incubation was then made for additional 15 min. The reaction was terminated by addition of 1 ml of ice-cooled PBS(+), and the reaction mixture was centrifuged at 2,500 rpm for 10 min. To 2 ml of the supernatant was added 1 ml of a 4% solution of perchloric acid, and the mixture was assayed for free histamine. For the assay of total histamine, a sample was prepared by placing 0.8 ml of a suspension of untreated mast cells in boiling water for 10 min. followed by addition of 4% perchloric acid.
Amount of histamine in the sample was assayed by fluorimetry, and percent histamine release (%) was calculated by the equation [formula]

Experiment [4] concerns lymphocytes (mononuclear cells from blood of a healthy adult). As to the kind of experiment: Blast formation of lymphocytes stimulated with various lectins (3H-thymidine uptake). In kind it is cell-based, human (healthy adult). The following applies: for uptake of 3H-thymine by the lymphocytes stimulated with a lectin: particularly Con-A; for uptake of 3H-thymine by the lymphocytes stimulated with a lectin / influence upon uptake of 3H-thymine by lymphocytes in the absence of a mitogen: summary of Tables 3-6; for influence upon uptake of 3H-thymine by lymphocytes in the absence of a mitogen: no mitogen. As to the method: Mononuclear cells were collected by the density centrifugal method from blood of a healthy adult drawn in the presence of heparin and suspended in an RPMI-1640 culture medium (manufactured by Gibco) containing 10% by volume of bovine fetus serum (called FBS, manufactured by Dainihon Seiyaku). The suspension, adjusted to a concentration of 1×10^6 cells/ml, was divided into a 96-well Falcon microplate (manufactured by Becton Dickinson) in a volume of 100 μl/well. Then, a lectin, 1 μg/ml of PHA (phytohemagglutinin), 10 μg/ml of Con-A (concanavalin A) or 15 μg/ml of PWM (pokeweed mitogen) and one of the captioned peptides at a predetermined concentration were added followed by addition of a 10% FBS containing RPMI-1640 medium to a final liquid volume of 200 μl. Cultivation was made in a 5% by volume CO2 incubator at 37° C. for 72 hours, and 24 hours before completion of the cultivation 5 μCi of ^3 H-thymidine was added. The cells were recovered by a cell harvester (manufactured by Bio-Lab), and uptake of the ^3 H-thymidine was measured by a scintillation counter. Results of the measurement are shown in Table 3-Table 6 wherein figures indicate mean count (cpm)±standard error.

The test system of the next experiment is IL-1. As to the kind of experiment: Productivity of humoral factors by lymphocytes: IL-1. In kind it is cell-based, human (healthy adult). The following applies: for IL-1: cultivation for a week, control 7.1; for production of IL-1: summary of Table 7. The method, then:
(§2) Mononuclear cells separated by the density centrifugal method from blood of a healthy adult drawn in the presence of heparin were suspended in an RPMI-1640 culture medium containing 10% by volume of FBS. The suspension was divided into culture tubes (Falcon 2054) each at a concentration of 1×10^6 cells/ml, to which the captioned peptides were respectively added. Cultivation was made in an incubator for a week. After completion of the cultivation, the culture was centrifuged (1,500 rpm, 10 min.), and the supernatant collected and assayed for humoral factors. Interleukin 1 (IL-1) and tumor-nectrotizing factors were measured, respectively by a IL-1 radioimmunoassay kit (manufactured by Amersham International) and a TNF radioimmunoassay kit (manufactured by Medgenix). Measurement of interleukin 6 (IL-6) was made by the enzyme immunoassay method (ELISA) using IL-6 antibody (manufactured by Genzyme). Results of the measurements are shown in Table 7 wherein figures represent mean value±standard error.

A further experiment concerns IL-6. As to the kind of experiment: Productivity of humoral factors by lymphocytes: IL-6. The format is cell-based, human (healthy adult). The following applies: for IL-6: cultivation for a week, control 270; for production of IL-6: summary of Table 7. As to the method: as §2
A further experiment deals with TNF. The experiment is described as follows: Productivity of humoral factors by lymphocytes: TNF. The format is cell-based, human (healthy adult). The following applies: for TNF: cultivation for a week, control 2,020; for production of TNF: summary of Table 7. The method, then:
as §2

Setting [5] is: Con-A (10 μg/ml), peptide 10^-6 M, control 37,800.
[6] abbreviates: Con-A (10 μg/ml), peptide 10^-8 M, control 37,800.
Setting [7] is: PHA (1 μg/ml), peptide 10^-6 M, control 69,600.
[8] abbreviates: PHA (1 μg/ml), peptide 10^-8 M, control 69,600.
The mark [9] stands for this setting: PWM (15 μg/ml), peptide 10^-6 M, control 13,600.
Where [10] appears, read: PWM (15 μg/ml), peptide 10^-8 M, control 13,600.
[11] abbreviates: mitogen None, peptide 10^-6 M, control 1,090.
The mark [12] stands for this setting: mitogen None, peptide 10^-8 M, control 1,090.

On to `COc1ccc(CCN(C)CCCC(C#N)(c2ccc(OC)c(OC)c2)C(C)C)cc1OC` (stereo not shown) [Verapamil, verapamil, reference compound], for which the Percent relaxation turned out to be 100% in experiment [1] (compound 10^-4 M); 100% in experiment [1] (compound 10^-5 M); 97.1% in experiment [1] (compound 10^-6 M); 68.3% in experiment [1] (compound 10^-7 M); 7.1% in experiment [1] (compound 10^-8 M); 68.6% in experiment [2] (compound 10^-4 M). Besides, the Percent relaxation is recorded as 47.1% in experiment [2] (compound 10^-5 M), 20.6% in experiment [2] (compound 10^-6 M), 4.6% in experiment [2] (compound 10^-7 M) and 0% in experiment [2] (compound 10^-8 M).

Turning to “H-ADSDGK-OH [ADSDGK, H-Ala-Asp-Ser-Asp-Gly-Lys-OH]”, the “inhibitory activity on histamine release” value in experiment [3] (at a concentration of 10^-5 M or higher, FIG. 5-7) is reported as “clear inhibitory activity”. For the same molecule, the “potency of histamine release inhibition compared with H-Asp-Ser-Asp-Pro-Arg-OH” value in experiment [3] (versus comparative drug H-Asp-Ser-Asp-Pro-Arg-OH) was “higher”. In experiment [3] (versus cromoglycate), the “potency of histamine release inhibition compared with cromoglycate” value is “nearly equal to or higher”. The “Uptake of 3H-thymidine by lymphocytes” value in experiment [4] (setting [5]) is 21,500 cpm; in experiment [4] (setting [6]), 24,600 cpm; in experiment [4] (setting [7]), 63,000 cpm; in experiment [4] (setting [8]), 64,100 cpm; in experiment [4] (setting [9]) it was 13,600 cpm; in experiment [4] (setting [10]) it was 14,500 cpm. The “Uptake of 3H-thymidine by lymphocytes” value is given as 900 cpm in experiment [4] (setting [11]) and 797 cpm in experiment [4] (setting [12]). In addition, the “uptake of 3H-thymine by the lymphocytes stimulated with a lectin” value in experiment [4] is reported as “strongly inhibit”. Besides, the “influence upon uptake of 3H-thymine by lymphocytes in the absence of a mitogen” value in experiment [4] is given as “little influence”. Besides, the results for the IL-1 in the experiment on IL-1 (additive 10^-6 M) and in the experiment with IL-1 (additive 10^-8 M) were 11.2 fM/ml and 11.3 fM/ml, respectively. Also, the “production of IL-1” value in the experiment with IL-1 was “promote production”. The IL-6 in the experiment with IL-6 (additive 10^-6 M) and in the experiment on IL-6 (additive 10^-8 M) was 270 U/ml throughout. The “production of IL-6” value with IL-6 was “promote production”. Besides, the TNF was 3,620 pg/ml in the experiment with TNF (additive 10^-6 M) and 4,120 pg/ml in the experiment on TNF (additive 10^-8 M). Also, in the experiment on TNF, the “production of TNF” value is “promote production”.

As to “H-DSDGK-OH [DSDGK, H-Asp-Ser-Asp-Gly-Lys-OH]”, the “Uptake of 3H-thymidine by lymphocytes” value is 19,300 cpm in experiment [4] (setting [5]); 17,900 cpm in experiment [4] (setting [6]); 56,900 cpm in experiment [4] (setting [7]); 62,000 cpm in experiment [4] (setting [8]); 13,000 cpm in experiment [4] (setting [9]); 9,550 cpm in experiment [4] (setting [10]). In addition, the “Uptake of 3H-thymidine by lymphocytes” value in experiment [4] (setting [11]) was determined as 877 cpm; in experiment [4] (setting [12]) it was 887 cpm. The “uptake of 3H-thymine by the lymphocytes stimulated with a lectin” value in experiment [4] is on record as “strongly inhibit”. Besides, in experiment [4], the “influence upon uptake of 3H-thymine by lymphocytes in the absence of a mitogen” value was “little influence”. Moreover, the values for the IL-1 in the experiment with IL-1 (additive 10^-6 M) and in the experiment with IL-1 (additive 10^-8 M) were 8.3 fM/ml and 7.3 fM/ml, respectively. For the same molecule, the “production of IL-1” value in the experiment on IL-1 is reported as “promote production”. Moreover, the IL-6 worked out at 400 U/ml with IL-6 (additive 10^-6 M) and 280 U/ml in the experiment on IL-6 (additive 10^-8 M). Besides, the “production of IL-6” value in the experiment with IL-6 is given as “promote production”. Also, the TNF in the experiment with TNF (additive 10^-6 M) is reported as 4,270 pg/ml; in the experiment on TNF (additive 10^-8 M), 4,100 pg/ml. Further, in the experiment with TNF, the “production of TNF” value is “promote production”.

Turning to nitroprusside [reference compound], the Percent relaxation in experiment [1] (compound 10^-4 M) is reported as 35.7%; in experiment [1] (compound 10^-5 M), 24.3%; in experiment [1] (compound 10^-6 M) it was 11.4%; in experiment [1] (compound 10^-7 M), 1.4%; in experiment [1] (compound 10^-8 M), 0%; in experiment [2] (compound 10^-4 M) it was 98.8%. Also, the Percent relaxation is on record as 93.8% in experiment [2] (compound 10^-5 M), 86.0% in experiment [2] (compound 10^-6 M), 59.4% in experiment [2] (compound 10^-7 M) and 16.1% in experiment [2] (compound 10^-8 M).
